US7998948B2, “Pharmaceutical composition for treating esophageal cancer” (Eisai R&D Management Co., Ltd., priority 2007, dated 2011)

How the values were obtained:
Assay type in all cases: cell-based
[1] = tested on: OE33 human esophageal cancer cells; test: Inhibitory action against proliferation of human esophageal cancer cells (OE33); details: OE33, 72 h, 0E33 cells, RPMI1640 with 10% FBS, 3 days incubation, Cell Counting Kit-8, read-out: concentration of the test substance required to inhibit 50% of cell proliferation (IC50), 0E33
Procedure: (§1) Human esophageal cancer cells (OE19, OE21 and OE33) were purchased from Dainippon Sumitomo Pharma Co., Ltd. OE19, OE21 or was suspended in RPMI1640 medium (purchased from Sigma) containing 10% FBS. The cell suspension (2×10^4 cells/ml) was dispensed into a 96-well plate (purchased from FALCON; product No. 353075) by 0.1 ml/well, and incubated at 37° C. in a 5% CO2 incubator overnight. After the incubation, 0.1 ml of the test substance diluted with RPMI1640 medium containing 10% FBS was added to each well, which was further incubated for 3 days in the 5% CO2 incubator (37° C.). After the incubation, 10 μl of Cell Counting Kit-8 (purchased from DOJINDO Laboratories) was added to each well, which were incubated for about 2 hours in the 5% CO2 incubator (37° C.). After the incubation, the absorbance of the each well was measured using a plate reader MTP-500 (Corona Electric Co., Ltd) with a measurement wavelength of 450 nm and a control wavelength of 660 nm. A ratio of absorbance (%) of each well with the test substance against the wells without the test substance was determined, and based on this ratio, the concentration of the test substance required to inhibit 50% of cell proliferation (IC50; μM) was determined and the results are shown in Table 1.

[2] = tested on: OE21 human esophageal cancer cells; test: Inhibitory action against proliferation of human esophageal cancer cells (OE21); details: OE21, 72 h, 0E21 cells, RPMI1640 with 10% FBS, 3 days incubation, Cell Counting Kit-8, read-out: concentration of the test substance required to inhibit 50% of cell proliferation (IC50), 0E21
Procedure: as §1

[3] = tested on: OE19 human esophageal cancer cells; test: Inhibitory action against proliferation of human esophageal cancer cells (OE19); details: OE19, 72 h, 0E19 cells, RPMI1640 with 10% FBS, 3 days incubation, Cell Counting Kit-8, read-out: concentration of the test substance required to inhibit 50% of cell proliferation (IC50), 0E19
Procedure: as §1

SMILES | IC50 [1] [nM] | IC50 [2] [nM] | IC50 [3] [nM]
O=C(Nc1cc(Oc2cc(F)c(NC(=O)C3(C(=O)Nc4ccc(F)cc4)CC3)cc2F)ccn1)N1CC(CO)C1 [N-(2,5-Difluoro-4-{[2-({[3-(hydroxymethyl)azetidin-1-yl]carbonyl}amino)pyridin-4-yl]oxy}phenyl)-N′-(4-fluorophenyl)cyclopropane-1,1-dicarboxamide] | 250 | 7400 | 3200
CN1CCN(C2CCN(C(=O)Nc3cc(Oc4cc(F)c(NC(=O)C5(C(=O)Nc6ccc(F)cc6)CC5)cc4F)ccn3)CC2)CC1 [N-(2,5-Difluoro-4-{[2-({[4-(4-methylpiperazin-1-yl)piperidin-1-yl]carbonyl}amino)pyridin-4-yl]oxy}phenyl)-N′-(4-fluorophenyl)cyclopropane-1,1-dicarboxamide] | 670 | 3000 | 3500
CN1CCC(N(C)C(=O)Nc2cc(Oc3cc(F)c(NC(=O)C4(C(=O)Nc5ccc(F)cc5)CC4)cc3F)ccn2)CC1 [N-(2,5-Difluoro-4-{[2-({[methyl(1-methylpiperidin-4-yl)amino]carbonyl}amino)pyridin-4-yl]oxy}phenyl)-N′-(4-fluorophenyl)cyclopropane-1,1-dicarboxamide] | 140 | 1700 | 2300
CN1CCN(C2CCN(C(=O)Nc3cc(Oc4ccc(NC(=O)C5(C(=O)Nc6ccc(F)cc6)CC5)c(F)c4)ccn3)CC2)CC1 [N-(2-Fluoro-4-{[2-({[4-(4-methylpiperazin-1-yl)piperidin-1-yl]carbonyl}amino)pyridin-4-yl]oxy}phenyl)-N′-(4-fluorophenyl)cyclopropane-1,1-dicarboxamide] | 1600 | 5500 | 3600
O=C(Nc1cc(Oc2ccc(NC(=O)C3(C(=O)Nc4ccc(F)cc4)CC3)c(F)c2)ccn1)N1CCC1 [N-[4-({2-[(Azetidin-1-ylcarbonyl)amino]pyridin-4-yl}oxy)-2-fluorophenyl]-N′-(4-fluorophenyl)cyclopropane-1,1-dicarboxamide] | 180 | > 10000 | 4200
O=C(Nc1cc(Oc2cc(F)c(NC(=O)C3(C(=O)Nc4ccc(F)cc4)CC3)cc2F)ccn1)N1CC(O)C1 [N-{2,5-Difluoro-4-[(2-{[(3-hydroxyazetidin-1-yl)carbonyl]amino}pyridin-4-yl)oxy]phenyl}-N′-(4-fluorophenyl)cyclopropane-1,1-dicarboxamide] | 240 | 6400 | 5200
